# Measured values taken from ChEMBL document CHEMBL2331418, “Synthesis of tartaric acid analogues of FR258900 and their evaluation as glycogen phosphorylase inhibitors” (Bioorg Med Chem Lett, 2013).
# What was measured:
# [1] = Competitive inhibition of rabbit muscle glycogen phosphorylase b using constant concentration of glucose-1-phosphate, glycogen and varying concentration of AMP as substrate; assay type: tissue-based, Oryctolagus cuniculus, Muscle tissue
# [2] = Non-competitive inhibition of rabbit muscle glycogen phosphorylase b using constant concentration of AMP, glycogen and varying concentration of glucose-1-phosphate as substrate; assay type: tissue-based, Oryctolagus cuniculus, Muscle tissue
# [3] = biological target: T1, Glycogen phosphorylase, muscle form (Oryctolagus cuniculus, UniProt P00489); test: Inhibition of rabbit muscle glycogen phosphorylase
# T1 sequence (P00489 whole entry): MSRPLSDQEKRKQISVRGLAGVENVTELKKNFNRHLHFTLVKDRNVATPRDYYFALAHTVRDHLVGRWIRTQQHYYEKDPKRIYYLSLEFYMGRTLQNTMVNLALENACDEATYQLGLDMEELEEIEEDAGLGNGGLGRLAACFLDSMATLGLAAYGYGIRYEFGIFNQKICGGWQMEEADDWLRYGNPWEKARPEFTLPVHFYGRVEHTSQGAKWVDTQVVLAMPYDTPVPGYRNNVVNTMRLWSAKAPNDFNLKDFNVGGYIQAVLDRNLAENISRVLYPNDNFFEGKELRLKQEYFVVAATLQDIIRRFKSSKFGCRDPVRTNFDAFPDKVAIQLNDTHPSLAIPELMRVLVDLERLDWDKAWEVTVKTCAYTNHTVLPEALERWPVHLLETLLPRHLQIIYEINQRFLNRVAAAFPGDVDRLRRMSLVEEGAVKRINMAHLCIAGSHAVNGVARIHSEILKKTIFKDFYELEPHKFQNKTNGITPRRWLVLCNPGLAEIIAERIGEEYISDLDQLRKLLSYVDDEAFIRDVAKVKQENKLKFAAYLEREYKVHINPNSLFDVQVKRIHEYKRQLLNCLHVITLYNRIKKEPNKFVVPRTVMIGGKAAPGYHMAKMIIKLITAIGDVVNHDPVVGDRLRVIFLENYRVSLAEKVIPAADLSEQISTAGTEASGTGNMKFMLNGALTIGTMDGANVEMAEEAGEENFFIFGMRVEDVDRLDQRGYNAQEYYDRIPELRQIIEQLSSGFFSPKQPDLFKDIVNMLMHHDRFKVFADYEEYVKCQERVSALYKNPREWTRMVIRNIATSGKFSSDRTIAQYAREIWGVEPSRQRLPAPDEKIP
# [4] = biological target: T2, Glycogen phosphorylase, liver form (Homo sapiens, UniProt P06737); test: Inhibition of human liver glycogen phosphorylase
# T2 sequence (P06737 whole entry): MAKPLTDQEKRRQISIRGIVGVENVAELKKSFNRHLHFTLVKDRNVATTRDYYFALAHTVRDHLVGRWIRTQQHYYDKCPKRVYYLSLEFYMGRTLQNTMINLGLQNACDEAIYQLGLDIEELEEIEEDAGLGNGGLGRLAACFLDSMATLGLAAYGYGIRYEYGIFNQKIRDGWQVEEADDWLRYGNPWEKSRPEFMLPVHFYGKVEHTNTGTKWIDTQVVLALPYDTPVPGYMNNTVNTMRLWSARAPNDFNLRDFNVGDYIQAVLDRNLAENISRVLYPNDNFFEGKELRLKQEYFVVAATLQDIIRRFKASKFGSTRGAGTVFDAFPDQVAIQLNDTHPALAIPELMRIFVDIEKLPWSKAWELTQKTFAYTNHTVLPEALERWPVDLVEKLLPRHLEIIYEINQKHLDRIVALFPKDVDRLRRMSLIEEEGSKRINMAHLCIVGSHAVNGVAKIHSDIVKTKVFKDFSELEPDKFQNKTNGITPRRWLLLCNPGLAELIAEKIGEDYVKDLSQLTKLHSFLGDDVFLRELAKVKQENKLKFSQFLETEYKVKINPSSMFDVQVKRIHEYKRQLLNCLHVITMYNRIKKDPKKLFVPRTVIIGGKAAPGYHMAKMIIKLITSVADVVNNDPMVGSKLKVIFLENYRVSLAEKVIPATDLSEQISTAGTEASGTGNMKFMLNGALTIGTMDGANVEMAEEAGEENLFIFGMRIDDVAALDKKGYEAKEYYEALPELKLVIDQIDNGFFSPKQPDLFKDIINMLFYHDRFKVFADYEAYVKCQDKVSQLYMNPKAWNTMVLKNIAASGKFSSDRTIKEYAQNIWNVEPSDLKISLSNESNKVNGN
SMILES,Ki [1] [µM],Ki [2] [µM],Ki [3] [µM],IC50 [4] [µM]
O=C(/C=C/c1ccc(O)cc1)O[C@@H](C(=O)O)[C@@H](OC(=O)/C=C/c1ccc(O)cc1)C(=O)O,11.3,300,,
O=C(O)C[C@H](OC(=O)/C=C/c1ccc(O)cc1)[C@@H](OC(=O)/C=C/c1ccc(O)cc1)C(=O)O,0.2,5.47,0.46,2.5
O=C(/C=C/c1ccc(O)cc1)O[C@H](C(=O)O)[C@H](OC(=O)/C=C/c1ccc(O)cc1)C(=O)O,26.4,109,,
O=C(/C=C/c1ccc(O)cc1)O[C@H](C(=O)O)[C@@H](OC(=O)/C=C/c1ccc(O)cc1)C(=O)O,5.68,71.4,,
